Measurements published in PubChem BioAssay (NCI).
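GI50 marks 50% less growth. TGI marks complete inhibition of growth.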

Experiments:
Test in all cases: NCI-60 cell line screen, 384-well format
PC-3 prostate = tested on: PC-3 prostate
SN12C renal = tested on: SN12C renal
LOX IMVI melanoma = tested on: LOX IMVI melanoma
MDA-MB-231 breast = tested on: MDA-MB-231 breast
RXF 393 renal = tested on: RXF 393 renal
U251 glioblastoma = tested on: U251 glioblastoma
SF-268 CNS = tested on: SF-268 CNS
SF-295 CNS = tested on: SF-295 CNS
MDA-MB-468 breast = tested on: MDA-MB-468 breast
A498 renal = tested on: A498 renal
HOP-92 NSCLC = tested on: HOP-92 NSCLC
BT-549 breast = tested on: BT-549 breast
MALME-3M melanoma = tested on: MALME-3M melanoma
T-47D breast = tested on: T-47D breast
SK-MEL-28 melanoma = tested on: SK-MEL-28 melanoma
HCC-2998 colon = tested on: HCC-2998 colon
KM12 colon = tested on: KM12 colon
SNB-75 CNS = tested on: SNB-75 CNS
TK-10 renal = tested on: TK-10 renal
CAKI-1 renal = tested on: CAKI-1 renal
SK-MEL-5 melanoma = tested on: SK-MEL-5 melanoma
M14 melanoma = tested on: M14 melanoma
SW-620 colon = tested on: SW-620 colon
UACC-257 melanoma = tested on: UACC-257 melanoma
786-0 renal = tested on: 786-0 renal
HL-60(TB) leukemia = tested on: HL-60(TB) leukemia
A549 NSCLC = tested on: A549 NSCLC
NCI-H322M lung = tested on: NCI-H322M lung
SNB-19 CNS = tested on: SNB-19 CNS
NCI/ADR-RES ovarian = tested on: NCI/ADR-RES ovarian
MOLT-4 leukemia = tested on: MOLT-4 leukemia
RPMI-8226 leukemia = tested on: RPMI-8226 leukemia
HS 578T breast = tested on: HS 578T breast
UACC-62 melanoma = tested on: UACC-62 melanoma
UO-31 renal = tested on: UO-31 renal
OVCAR-3 ovarian = tested on: OVCAR-3 ovarian
OVCAR-8 ovarian = tested on: OVCAR-8 ovarian
OVCAR-4 ovarian = tested on: OVCAR-4 ovarian
SR leukemia = tested on: SR leukemia
HT29 colon = tested on: HT29 colon
SF-539 CNS = tested on: SF-539 CNS
SK-MEL-2 melanoma = tested on: SK-MEL-2 melanoma
NCI-H23 lung = tested on: NCI-H23 lung
COLO 205 colon = tested on: COLO 205 colon
EKVX NSCLC = tested on: EKVX NSCLC
NCI-H522 lung = tested on: NCI-H522 lung
SK-OV-3 ovarian = tested on: SK-OV-3 ovarian

SMILES: C[C@H](NC(=O)c1c(C(F)F)nn(C)c1Oc1cccc(C(F)(F)F)c1)c1ccc(C(=O)O)cc1
- GI50 (PC-3 prostate): > 100 µM
- TGI (PC-3 prostate): > 100 µM
- GI50 (SN12C renal): > 100 µM
- TGI (SN12C renal): > 100 µM
- GI50 (LOX IMVI melanoma): > 100 µM
- TGI (LOX IMVI melanoma): > 100 µM
- GI50 (MDA-MB-231 breast): > 100 µM
- TGI (MDA-MB-231 breast): > 100 µM
- GI50 (RXF 393 renal): > 100 µM
- TGI (RXF 393 renal): > 100 µM
- GI50 (U251 glioblastoma): > 100 µM
- TGI (U251 glioblastoma): > 100 µM
- GI50 (SF-268 CNS): > 100 µM
- TGI (SF-268 CNS): > 100 µM
- GI50 (SF-295 CNS): > 100 µM
- TGI (SF-295 CNS): > 100 µM
- GI50 (MDA-MB-468 breast): > 100 µM
- TGI (MDA-MB-468 breast): > 100 µM
- GI50 (A498 renal): > 100 µM
- TGI (A498 renal): > 100 µM
- GI50 (HOP-92 NSCLC): > 100 µM
- TGI (HOP-92 NSCLC): > 100 µM
- GI50 (BT-549 breast): > 100 µM
- TGI (BT-549 breast): > 100 µM
- GI50 (MALME-3M melanoma): > 100 µM
- TGI (MALME-3M melanoma): > 100 µM
- GI50 (T-47D breast): > 100 µM
- TGI (T-47D breast): > 100 µM
- GI50 (SK-MEL-28 melanoma): > 100 µM
- TGI (SK-MEL-28 melanoma): > 100 µM
- GI50 (HCC-2998 colon): > 100 µM
- TGI (HCC-2998 colon): > 100 µM
- GI50 (KM12 colon): > 100 µM
- TGI (KM12 colon): > 100 µM
- GI50 (SNB-75 CNS): > 100 µM
- TGI (SNB-75 CNS): > 100 µM
- GI50 (TK-10 renal): > 100 µM
- TGI (TK-10 renal): > 100 µM
- GI50 (CAKI-1 renal): > 100 µM
- TGI (CAKI-1 renal): > 100 µM
- GI50 (SK-MEL-5 melanoma): > 100 µM
- TGI (SK-MEL-5 melanoma): > 100 µM
- GI50 (M14 melanoma): > 100 µM
- TGI (M14 melanoma): > 100 µM
- GI50 (SW-620 colon): > 100 µM
- TGI (SW-620 colon): > 100 µM
- GI50 (UACC-257 melanoma): > 100 µM
- TGI (UACC-257 melanoma): > 100 µM
- GI50 (786-0 renal): > 100 µM
- TGI (786-0 renal): > 100 µM
- GI50 (HL-60(TB) leukemia): > 100 µM
- TGI (HL-60(TB) leukemia): > 100 µM
- GI50 (A549 NSCLC): > 100 µM
- TGI (A549 NSCLC): > 100 µM
- GI50 (NCI-H322M lung): > 100 µM
- TGI (NCI-H322M lung): > 100 µM
- GI50 (SNB-19 CNS): > 100 µM
- TGI (SNB-19 CNS): > 100 µM
- GI50 (NCI/ADR-RES ovarian): > 100 µM
- TGI (NCI/ADR-RES ovarian): > 100 µM
- GI50 (MOLT-4 leukemia): > 100 µM
- TGI (MOLT-4 leukemia): > 100 µM
- GI50 (RPMI-8226 leukemia): > 61.1 µM
- TGI (RPMI-8226 leukemia): > 100 µM
- GI50 (HS 578T breast): > 100 µM
- TGI (HS 578T breast): > 100 µM
- GI50 (UACC-62 melanoma): > 100 µM
- TGI (UACC-62 melanoma): > 100 µM
- GI50 (UO-31 renal): > 100 µM
- TGI (UO-31 renal): > 100 µM
- GI50 (OVCAR-3 ovarian): > 100 µM
- TGI (OVCAR-3 ovarian): > 100 µM
- GI50 (OVCAR-8 ovarian): > 100 µM
- TGI (OVCAR-8 ovarian): > 100 µM
- GI50 (OVCAR-4 ovarian): > 100 µM
- TGI (OVCAR-4 ovarian): > 100 µM
- GI50 (SR leukemia): > 100 µM
- TGI (SR leukemia): > 100 µM
- GI50 (HT29 colon): > 100 µM
- TGI (HT29 colon): > 100 µM
- GI50 (SF-539 CNS): > 100 µM
- TGI (SF-539 CNS): > 100 µM
- GI50 (SK-MEL-2 melanoma): > 100 µM
- TGI (SK-MEL-2 melanoma): > 100 µM
- GI50 (NCI-H23 lung): > 100 µM
- TGI (NCI-H23 lung): > 100 µM
- GI50 (COLO 205 colon): > 100 µM
- TGI (COLO 205 colon): > 100 µM
- GI50 (EKVX NSCLC): > 100 µM
- TGI (EKVX NSCLC): > 100 µM
- GI50 (NCI-H522 lung): > 100 µM
- TGI (NCI-H522 lung): > 100 µM
- GI50 (SK-OV-3 ovarian): > 100 µM
- TGI (SK-OV-3 ovarian): > 100 µM
